Reference: US20230069963A1, “PYRAZOLO[1,5-A]PYRIMIDINE MACROCYCLIC COMPOUND” (priority 2018, published 2023)
Structures can show the parent of a compound that is named as a salt. Where two headings read alike, the source gives them in different places.

Tests used:
[1] = amide bond, HATU, DMF
RSV ATCC VR-1540 (A2) = test: microbe, parasite or virus in culture; format: cell-based; conditions: human respiratory syncytial virus, HEp-2, 96 h; Hep2 cells, incubated for 4 days, CPE detected with XTT assay (absorbance 450 nm); read-out: EC50 (nmol/L) against RSV A2 strain
[2] = system: F protein D486N mutant strain of RSV A2 strain; format: cell-based, respiratory syncytial virus (RSV); conditions: Hep2 cells, incubated for 4 days, CPE detected with XTT assay (absorbance 450 nm); read-out: EC50 (nmol/L) against F protein D486N mutant strain of RSV A2 strain
D486N mutant strain = conditions: D486N mutant vs wild strain; cited from earlier work

Molecule	EC50 (RSV ATCC VR-1540 (A2)) [nmol/L]	EC50 [2] [nmol/L]	other results
CN1CCCCS(=O)(=O)NC(C)(c2ccccc2)C(=O)N2CCCC[C@H]2c2cc3nc(Cl)cc1n3n2 (stereo partly shown)	–	–	ring closure, yield of all isomers ([1]; from CN(CCCCS(=O)(=O)NC(C)(C(=O)O)c1ccccc1)c1cc(Cl)nc2cc([C@@H]3CCCCN3)nn12, 10.2 mM, 70.0 °C, 2.5 h): 80.4%
CN1CCNC(=O)COc2ccc(F)cc2C(=O)N2CCCC[C@H]2c2cc3nc(Cl)cc1n3n2	–	–	ring closure, yield of all isomers ([1]; from CN(CCNC(=O)COc1ccc(F)cc1C(=O)O)c1cc(Cl)nc2cc([C@@H]3CCCCN3)nn12, 10.0 mM, 25.0 °C, 15.0 h): 64.8%
CN1CCNC(=O)COc2ccc(F)cc2C(=O)N2CCCCC2c2cc3nc(N4CCC(N)C4)cc1n3n2 [Example 1, (18aS)-13-[(3S)-3-aminopyrrolidin-1-yl]-2-fluoro-11-methyl-8,9,10,11,19,20,21,22-octahydro-18aH,24H-18,15-(metheno)pyrido[2,1-l]pyrimido[6,1-h][1,4,7,9,10,13]benzoxapentaazacyclohexadecine-7,24(6H)-dione]	2.07	3.17	–
CN1CCNC(=O)COc2ccc(F)cc2C(=O)N2CCCC[C@H]2c2cc3nc(N4CCC4)cc1n3n2 [Example 2, (18aS)-13-(azetidin-1-yl)-2-fluoro-1-methyl-8,9,10,11,19,20,21,22-octahydro-18aH,24H-18,15-(metheno)pyrido[2,1-l]pyrimido[6,1-h][1,4,7,9,10,13]benzoxapentaazacyclohexadecine-7,24(6H)-dione]	0.8	3.06	–
CN1CC(=O)NCCOc2ccc(F)cc2C(=O)N2CCCC[C@H]2c2cc3nc(N4CC(N)C4)cc1n3n2 [Example 37, (18aS)-13-(3-aminoazetidin-1-yl)-2-fluoro-1-methyl-7,8,10,11,19,20,21,22-octahydro-8aH,24H-18,15-(metheno)pyrido[2,1-l]pyrimido[6,1-h][1,4,7,9,10,13]benzoxapentaazacyclohexadecine-9,24(6H)-dione]	–	10.1	–
CN1CCNC(=O)COc2ccc(Cl)cc2C(=O)N2CCCC[C@H]2c2cc3nc(N4CC(O)C4)cc1n3n2 [Example 39]	–	0.867	–
[2H]C([2H])([2H])c1ccc2c(c1)C(=O)N1CCCC[C@H]1c1cc3nc(N4CC(O)C4)cc(n3n1)N(C)CCNC(=O)CO2 [Example 53, (18aS)-13-(3-hydroxyazetidin-1-yl)-1-methyl-2-trideuteriomethyl-8,9,10,11,19,20,21,22-octahydro-18aH,24H-18,15-(metheno)pyrido[2,1-l]pyrimido[6,1-h][1,4,7,9,10,13]benzoxapentaazacyclohexadecine-7,24(6H)-dione]	–	1.05	–
CN1CCCNC(=O)COc2ccc(F)cc2C(=O)N2CCCC[C@H]2c2cc3nc(N4CC(N)C4)cc1n3n2 [Example 57, (19aS)-14-(3-aminoazetidin-1-yl)-2-fluoro-12-methyl-9,10,11,12,20,21,22,23-octahydro-6H, 19aH,25H-19,16-(metheno)pyrido[2,1-m]pyrimido[6,1-i][1,4,8,10,11,14]benzoxapentaazacycloheptadecine-7,25(8H)-dione]	2.11	12.6	–
CN1CCNC(=O)COc2ccc(F)cc2C(=O)N2CCCC[C@H]2c2cc3nc(C4CC4)cc1n3n2 [Example 90, (18aS)-13-cyclopropyl-2-fluoro-11-methyl-8,9,10,11,19,20,21,22-octahydro-18aH,24H-18,15-(metheno)pyrido[2,1-l]pyrimido[6,1-h][1,4,7,9,10,13]benzoxapentaazacyclohexadecine-7,24(6H)-dione]	–	2.8	–
[2H]C([2H])([2H])c1ccc2c(c1)C(=O)N1CCCC[C@H]1c1cc3nc(C4CC4)cc(n3n1)N(C)CCNC(=O)CO2 [Example 100, (18aS)-13-cyclopropyl-11-methyl-2-trideuteriomethyl-8,9,10,11,19,20,21,22-octahydro-18aH,24H-18,15-(metheno)pyrido[2,1-l]pyrimido[6,1-h][1,4,7,9,10,13]benzoxapentaazacyclohexadecine-7,24(6H)-dione]	0.328	0.678	–
CN1CCNC(=O)COc2ccc(Cl)cc2C(=O)N2CCCCC2c2cc3nc(C4CC(O)C4)cc1n3n2 [Example 112, (18aS)-2-chloro-13-(trans-3-hydroxycyclobutyl)-11-methyl-8,9,10,11,19,20,21,22-octahydro-18aH,24H-18,15-(metheno)pyrido[2,1-l]pyrimido[6,1-h][1,4,7,9,10,13]benzoxapentaazacyclohexadecine-7,24(6H)-dione]	–	0.704	–
[2H]C([2H])([2H])N1CCNC(=O)COc2ccc(Cl)cc2C(=O)N2CCCCC2c2cc3nc(C4CC(O)C4)cc1n3n2 [Example 115, (18aS)-2-chloro-13-(trans-3-hydroxycyclobutyl)-11-trideuteriomethyl-8,9,10,11,19,20,21,22-octahydro-18aH,24H-18,15-(metheno)pyrido[2,1-l]pyrimido[6,1-h][1,4,7,9,10,13]benzoxapentaazacyclohexadecine-7,24(6H)-dione]	0.344	0.777	–
Cc1ccc2c(c1)C(=O)N1CCCCC1c1cc3nc(C4CC(O)C4)cc(n3n1)N(C)CCNC(=O)CO2 [Example 117, (18aS)-13-(trans-3-hydroxycyclobutyl)-2,11-dimethyl-8,9,10,11,19,20,21,22-octahydro-18aH,24H-18,15-(metheno)pyrido[2,1-l]pyrimido[6,1-h][1,4,7,9,10,13]benzoxapentaazacyclohexadecine-7,24(6H)-dione]	0.773	0.742	–
[2H]C([2H])([2H])c1ccc2c(c1)C(=O)N1CCCCC1c1cc3nc(C4CC(O)C4)cc(n3n1)N(C([2H])([2H])[2H])CCNC(=O)CO2 [Example 120, (18aS)-13-(trans-3-hydroxycyclobutyl)-2,1I-bis[trideuteriomethyl]-8,9,10,11,19,20,21,22-octahydro-18aH,24H-18,15-(metheno)pyrido[2,1-l]pyrimido[6,1-h][1,4,7,9,10,13]benzoxapentaazacyclohexadecine-7,24(6H)-dione]	0.45	0.639	–
Cc1ccc2c(c1)C(=O)N1CCCC[C@H]1c1cc3nc(N4CC(O)C4)cc(n3n1)N(C)CCNCCO2 [Example 171, (18aS)-13-(3-hydroxyazetidin-1-yl)-2,11-dimethyl-6,7,8,9,10,11,19,20,21,22-decahydro-18aH,24H-18,15-(metheno)pyrido[2,1-l]pyrimido[6,1-h][1,4,7,9,10,13]benzoxapentaazacyclohexadecin-24-one]	–	4.19	–
Cc1ccc2c(c1)C(=O)N1CCCCC1c1cc3nc(N4CCC(N)C4)cc(n3n1)N(C)CCCCO2 [Example 244, (23aS)-18-[(3S)-3-aminopyrrolidin-1-yl]-8,16-dimethyl-1,3,4,13,14,15,16,23a-octahydro-2H, 6H,12H-23,20-(metheno)pyrido[2,1-k]pyrimido[6,1-g][1,6,8,9,12]benzoxatetraazacyclopentadecin-6-one hydrochloride]	4.01	7.34	–
CN1CCOCCOc2ccc(Cl)cc2C(=O)N2CCCC[C@H]2c2cc3nc(N4CC(N)C4)cc1n3n2 [Example 298, (18aS)-13-(3-aminoazetidin-1-yl)-2-chloro-11-methyl-6,7,10,11,19,20,21,22-octahydro-9H,18aH,24H-18,15-(metheno)pyrido[2,1-l]pyrimido[6,1-h][1,4,7,9,10,13]benzodioxatetraazacyclohexadecin-24-one]	–	3.13	–
CN1CCCS(=O)(=O)Nc2ccc(Cl)cc2C(=O)N2CCCCC2c2cc3nc(N4CCC(N)C4)cc1n3n2 [Example 312, (23aS)-18-[(3S)-3-aminopyrrolidin-1-yl]-8-chloro-16-methyl-1,3,4,13,14,15,16,23a-octahydro-2H,6H-23,20-(metheno)-12h-pyrido[2,1-k]pyrimido[6,1-g][2,1,6,8,9,12]benzothiapentaazacyclopentadecine-6,12,12(11H)-trione]	4.05	31.8	–
CN1CCn2ccnc2COc2ccc(Cl)cc2C(=O)N2CCCC[C@H]2c2cc3nc(N4CC(N)C4)cc1n3n2 [Example 335, (20aS)-15-(3-amninoazetidin-1-yl)-2-chloro-13-methyl-12,13,21,22,23,24-hexahydro-6H,11H, 20aH,26H-20,17-(metheno)imidazo[2,1-c]pyrido[2,1-l]pyrimido[6,1-h][1,4,7,9,10,13]benzoxapentaazacyclohexadecin-26-one]	–	10.6	–
Cc1ccc2c(c1)C(=O)N1CCCCC1c1cc3nc(N4CC(O)C4)cc(n3n1)N(C)CC(C(F)(F)F)NCCO2 [Example 348, (18aS)-13-(3-hydroxyazetidin-1-yl)-2,11-dimethyl-9-(trifluoromethyl)-6,7,8,9,10,11,19,20,21,22-decahydro-18aH,24H-18,15-(metheno)pyrido[2,1-l]pyrimido[6,1-h][1,4,7,9,10,13]benzoxapentaazacyclohexadecin-24-one]	–	8.2	–
Cc1cn2nc([C@@H]3CCCCN3C(=O)c3cc(Cl)ccc3NS(C)(=O)=O)cc2nc1N1CC[C@H](N)C1 [GS-5806]	–	–	reduction of activity against the D486N mutant strain compared to the activity against the wild strain (D486N mutant strain): approximately 1000 times
(18aS)-13-(trans-3-hydroxycyclobutyl)-11-methyl-2-trideuteriomethyl-8,9,10,11,19,20,21,22-octahydro-18aH,24H-18,15-(metheno)pyrido[2,1-l]pyrimido[6,1-h][1,4,7,9,10,13]benzoxapentaazacyclohexadecine-7,24(6H)-dione [Example 118t]	–	0.72	–
